Laboratory results reported in patent US11000033B2, “Ketone or oxime compound, and herbicide” (NISSAN CHEMICAL CORPORATION, priority 2014, dated 2021).

How the values were obtained:
Assay type in all cases: in vivo
Avena fatua = assay: Test Example 4: herbicidal effect by soil treatment (symbol I); conditions: application herbicide amount 320 g/ha
Outline: (§1)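 Seeds were sown in sterilized diluvial soil, covered with about 1.5 cm of soil, and the soil surface was sprayed with a water-diluted emulsion of the compound at a predetermined rate. Plants grew in a greenhouse at 25° C. to 30° C.; effects were scored visually 3 weeks after application.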

rapeseed [1] = assay: Test Example 4: effect on crop by soil treatment (symbol g); conditions: application herbicide amount 320 g/ha
Outline: (§2)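 Plants grew in a 25° C. to 30° C. greenhouse after spot-sowing of seeds, including beet, rapeseed, wheat and rice, into sterilized diluvial soil under roughly 1.5 cm of cover soil.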

beet = assay: Test Example 5: effect on crop by foliage application, plastic box (symbol f); conditions: 320 g/ha, 3 weeks after application
Outline: (§3)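 Crop seed is sown alongside grass and broadleaf weed species in spots in sterilized diluvial soil, then covered to a depth of about 1.5 cm. Plants grow in a greenhouse kept at 25° C. to 30° C.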

Scirpus juncoides = assay: Test Example 2: herbicidal activity, application during weed generation in submerged conditions (symbol B); conditions: Table 23; application herbicide amount 320 g/ha; grade 0-5 by criteria of Test Example 1
Outline: (§4)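 Weeds emerging under flooded conditions were treated with compound formulated as an emulsion and diluted with water to the intended herbicide amount, poured onto the surface of 4 cm standing water. Seeds had been co-sown in alluvial soil; plants grew at 25° C. to 30° C. and were assessed after 3 weeks.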

wheat [2] = assay: Test Example 5: effect on crop by foliage application, plastic box (symbol e); conditions: 320 g/ha, 3 weeks after application
Outline: as §3

Apera spica-venti = assay: Test Example 4: herbicidal effect by soil treatment (symbol L); conditions: application herbicide amount 320 g/ha
Outline: as §1

rice = assay: Test Example 4: effect on crop by soil treatment (symbol b); conditions: application herbicide amount 320 g/ha
Outline: as §2

soybean = assay: Test Example 4: effect on crop by soil treatment (symbol d); conditions: application herbicide amount 320 g/ha
Outline: as §2

wheat [3] = assay: Test Example 4: effect on crop by soil treatment (symbol e); conditions: application herbicide amount 320 g/ha
Outline: as §2

Lolium multiflorum Lam. = assay: Test Example 4: herbicidal effect by soil treatment (symbol K); conditions: application herbicide amount 320 g/ha
Outline: as §1

[4] = system: directly sowed rice plant; assay: Test Example 3: effect on crop by foliage application, Wagner pot (symbol b); conditions: application herbicide amount 320 g/ha
Outline: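 Plants are raised from seed in flooded paddy conditions: water stands 0.1–0.5 cm over alluvial soil, and the pot is kept in a greenhouse at 25–30 °C. Species sown are barnyardgrass (E. crus-galli var. crus-galli), Leptochloa chinensis, Cyperus difformis and rice.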

Amaranthus retroflexus = assay: Test Example 4: herbicidal effect by soil treatment (symbol N); conditions: application herbicide amount 320 g/ha
Outline: as §1

rapeseed [5] = assay: Test Example 5: effect on crop by foliage application, plastic box (symbol g); conditions: 320 g/ha, 3 weeks after application
Outline: as §3

[6] = system: Echinochloa oryzacola Vasing.; assay: Test Example 2: herbicidal activity, application during weed generation in submerged conditions (symbol A); conditions: Table 23; application herbicide amount 320 g/ha; grade 0-5 by criteria of Test Example 1
Outline: as §4

rice plant = assay: Test Example 5: effect on crop by foliage application, plastic box (symbol b); conditions: 320 g/ha, 3 weeks after application
Outline: as §3

Abutilon theophrasti = assay: Test Example 5: herbicidal effect by foliage application, plastic box (symbol M); conditions: 320 g/ha, 3 weeks after application
Outline: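 Leaf-applied emulsion, water-diluted to a preset herbicide dose, on two-week-old seedlings raised in a 25° C. to 30° C. greenhouse; injury rated at 3 weeks using earlier criteria.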

For `CON=C(C)CC1CC(O)=C(c2c(C)cc(-c3ccccn3)cc2C)C1=O` (mixture of isomers) [6-051], the “I: Avena fatua, herbicidal effect grade” value (Avena fatua) was 1 (Herbicidal ratio of 5% or higher and lower than 20%), the “g: rapeseed, effect on crop grade” value (rapeseed [1]) was 4 (Herbicidal ratio of 70% or higher and lower than 90%) and the “f: beet, effect on crop grade” value (beet) was 3 (Herbicidal ratio of 40% or higher and lower than 70%). The “Herbicidal effect grade, B: Scirpus juncoides” value (“Herbicidal effect grade, B” for short) (Scirpus juncoides) was 4 (Herbicidal ratio of 70% or higher and lower than 90%), the “e: wheat, effect on crop grade” value (wheat [2]) was 4 (Herbicidal ratio of 70% or higher and lower than 90%) and the “L: Apera spica-venti, herbicidal effect grade” value (“L: Apera spica-venti” for short) (Apera spica-venti) was 5 (Herbicidal ratio of 90% or more (almost completely withered)). The “b: directly sowed rice plant, effect on crop grade” value (rice) was 5 (Herbicidal ratio of 90% or more (almost completely withered)), the “d: soybean, effect on crop grade” value (soybean) was 1 (Herbicidal ratio of 5% or higher and lower than 20%) and the “e: wheat, effect on crop grade” value (wheat [3]) was 2 (Herbicidal ratio of 20% or higher and lower than 40%). The “K: Lolium multiflorum Lam., herbicidal effect grade” value (Lolium multiflorum Lam.) was 5 (Herbicidal ratio of 90% or more (almost completely withered)), the “effect on crop b (directly sowed rice plant), grade 0-5” value (shortened to “effect on crop b”) [4] was 5 (Herbicidal ratio of 90% or more (almost completely withered)) and the “N: Amaranthus retroflexus, herbicidal effect grade” value (“N: Amaranthus retroflexus” below) (Amaranthus retroflexus) was 5 (Herbicidal ratio of 90% or more (almost completely withered)). The “g: rapeseed, effect on crop grade” value (rapeseed [5]) was 5 (Herbicidal ratio of 90% or more (almost completely withered)), the “Herbicidal effect grade, A: Echinochloa oryzacola Vasing.” value [6] was 5 (Herbicidal ratio of 90% or more (almost completely withered)) and the “b: directly sowed rice plant, effect on crop grade” value (rice plant) was 5 (Herbicidal ratio of 90% or more (almost completely withered)). For the same compound, the “M: Abutilon theophrasti, herbicidal effect grade” value (Abutilon theophrasti) was 1 (Herbicidal ratio of 5% or higher and lower than 20%).
`CON=C(C)CC1CC(O)=C(c2c(C)cc(OCc3ccncc3)cc2C)C1=O` (mixture of isomers) [6-053] was tested, and the “I: Avena fatua, herbicidal effect grade” value (Avena fatua) was 1 (Herbicidal ratio of 5% or higher and lower than 20%), the “g: rapeseed, effect on crop grade” value (rapeseed [1]) was 0 (Herbicidal ratio of 5% or lower (almost no effect)) and the “f: beet, effect on crop grade” value (beet) was 0 (Herbicidal ratio of 5% or lower (almost no effect)). For the same compound, the “Herbicidal effect grade, B” value (Scirpus juncoides) was 1 (Herbicidal ratio of 5% or higher and lower than 20%), the “e: wheat, effect on crop grade” value (wheat [2]) was 0 (Herbicidal ratio of 5% or lower (almost no effect)) and the “L: Apera spica-venti” value (Apera spica-venti) was 0 (Herbicidal ratio of 5% or lower (almost no effect)). The “b: directly sowed rice plant, effect on crop grade” value (rice) was 2 (Herbicidal ratio of 20% or higher and lower than 40%), the “d: soybean, effect on crop grade” value (soybean) was 0 (Herbicidal ratio of 5% or lower (almost no effect)) and the “e: wheat, effect on crop grade” value (wheat [3]) was 0 (Herbicidal ratio of 5% or lower (almost no effect)). For the same compound, the “K: Lolium multiflorum Lam., herbicidal effect grade” value (Lolium multiflorum Lam.) was 0 (Herbicidal ratio of 5% or lower (almost no effect)), the “effect on crop b” value [4] was 5 (Herbicidal ratio of 90% or more (almost completely withered)) and the “N: Amaranthus retroflexus” value (Amaranthus retroflexus) was 0 (Herbicidal ratio of 5% or lower (almost no effect)). The “g: rapeseed, effect on crop grade” value (rapeseed [5]) was 3 (Herbicidal ratio of 40% or higher and lower than 70%), the “Herbicidal effect grade, A: Echinochloa oryzacola Vasing.” value [6] was 3 (Herbicidal ratio of 40% or higher and lower than 70%) and the “b: directly sowed rice plant, effect on crop grade” value (rice plant) was 3 (Herbicidal ratio of 40% or higher and lower than 70%). The “M: Abutilon theophrasti, herbicidal effect grade” value (Abutilon theophrasti) was 0 (Herbicidal ratio of 5% or lower (almost no effect)).
In the case of `CON=C(C)CC1CC(O)=C(c2c(C)cc(-c3ccc(OC(F)(F)F)cc3)cc2C)C1=O` (mixture of isomers) [6-056], the “I: Avena fatua, herbicidal effect grade” value (Avena fatua) was 0 (Herbicidal ratio of 5% or lower (almost no effect)), the “g: rapeseed, effect on crop grade” value (rapeseed [1]) was 0 (Herbicidal ratio of 5% or lower (almost no effect)) and the “f: beet, effect on crop (criteria of Test Example 1)” value (beet) was 0 (Herbicidal ratio of 5% or lower (almost no effect)). The “Herbicidal effect grade, B” value (Scirpus juncoides) was 0 (Herbicidal ratio of 5% or lower (almost no effect)), the “e: wheat, effect on crop (criteria of Test Example 1)” value (wheat [2]) was 0 (Herbicidal ratio of 5% or lower (almost no effect)) and the “L: Apera spica-venti” value (Apera spica-venti) was 0 (Herbicidal ratio of 5% or lower (almost no effect)). For the same compound, the “b: directly sowed rice plant, effect on crop grade” value (rice) was 1 (Herbicidal ratio of 5% or higher and lower than 20%), the “d: soybean, effect on crop grade” value (soybean) was 0 (Herbicidal ratio of 5% or lower (almost no effect)) and the “e: wheat, effect on crop grade” value (wheat [3]) was 0 (Herbicidal ratio of 5% or lower (almost no effect)). The “K: Lolium multiflorum Lam., herbicidal effect grade” value (Lolium multiflorum Lam.) was 0 (Herbicidal ratio of 5% or lower (almost no effect)), the “effect on crop b” value [4] was 5 (Herbicidal ratio of 90% or more (almost completely withered)) and the “N: Amaranthus retroflexus” value (Amaranthus retroflexus) was 0 (Herbicidal ratio of 5% or lower (almost no effect)). The “g: rapeseed, effect on crop (criteria of Test Example 1)” value (rapeseed [5]) was 3 (Herbicidal ratio of 40% or higher and lower than 70%), the “Herbicidal effect grade, A: Echinochloa oryzacola Vasing.” value [6] was 1 (Herbicidal ratio of 5% or higher and lower than 20%) and the “b: directly sowed rice plant, effect on crop (criteria of Test Example 1)” value (rice plant) was 2 (Herbicidal ratio of 20% or higher and lower than 40%). The “M: Abutilon theophrasti, herbicidal effect (criteria of Test Example 1)” value (Abutilon theophrasti) was 0 (Herbicidal ratio of 5% or lower (almost no effect)).
With `CON=C(C)CC1CC(O)=C(c2c(C)cc(-c3ncccn3)cc2C)C1=O` (mixture of isomers) [6-057] the “I: Avena fatua, herbicidal effect grade” value (Avena fatua) was 0 (Herbicidal ratio of 5% or lower (almost no effect)), the “g: rapeseed, effect on crop grade” value (rapeseed [1]) was 1 (Herbicidal ratio of 5% or higher and lower than 20%) and the “f: beet, effect on crop (criteria of Test Example 1)” value (beet) was 0 (Herbicidal ratio of 5% or lower (almost no effect)). The “Herbicidal effect grade, B” value (Scirpus juncoides) was 2 (Herbicidal ratio of 20% or higher and lower than 40%), the “e: wheat, effect on crop (criteria of Test Example 1)” value (wheat [2]) was 5 (Herbicidal ratio of 90% or more (almost completely withered)) and the “L: Apera spica-venti” value (Apera spica-venti) was 4 (Herbicidal ratio of 70% or higher and lower than 90%). For the same compound, the “b: directly sowed rice plant, effect on crop grade” value (rice) was 5 (Herbicidal ratio of 90% or more (almost completely withered)), the “d: soybean, effect on crop grade” value (soybean) was 0 (Herbicidal ratio of 5% or lower (almost no effect)) and the “e: wheat, effect on crop grade” value (wheat [3]) was 1 (Herbicidal ratio of 5% or higher and lower than 20%). For the same compound, the “K: Lolium multiflorum Lam., herbicidal effect grade” value (Lolium multiflorum Lam.) was 5 (Herbicidal ratio of 90% or more (almost completely withered)), the “effect on crop b” value [4] was 5 (Herbicidal ratio of 90% or more (almost completely withered)) and the “N: Amaranthus retroflexus” value (Amaranthus retroflexus) was 0 (Herbicidal ratio of 5% or lower (almost no effect)). For the same compound, the “g: rapeseed, effect on crop (criteria of Test Example 1)” value (rapeseed [5]) was 5 (Herbicidal ratio of 90% or more (almost completely withered)), the “Herbicidal effect grade, A: Echinochloa oryzacola Vasing.” value [6] was 3 (Herbicidal ratio of 40% or higher and lower than 70%) and the “b: directly sowed rice plant, effect on crop (criteria of Test Example 1)” value (rice plant) was 5 (Herbicidal ratio of 90% or more (almost completely withered)). For the same compound, the “M: Abutilon theophrasti, herbicidal effect (criteria of Test Example 1)” value (Abutilon theophrasti) was 1 (Herbicidal ratio of 5% or higher and lower than 20%).
`CON=C(C)CC1CC(O)=C(c2c(C)cc(-c3ccc(F)cc3)cc2C)C1=O` (mixture of isomers) [6-058] was tested, and the “I: Avena fatua, herbicidal effect grade” value (Avena fatua) was 5 (Herbicidal ratio of 90% or more (almost completely withered)), the “g: rapeseed, effect on crop grade” value (rapeseed [1]) was 5 (Herbicidal ratio of 90% or more (almost completely withered)) and the “f: beet, effect on crop (criteria of Test Example 1)” value (beet) was 5 (Herbicidal ratio of 90% or more (almost completely withered)). The “Herbicidal effect grade, B” value (Scirpus juncoides) was 5 (Herbicidal ratio of 90% or more (almost completely withered)), the “e: wheat, effect on crop (criteria of Test Example 1)” value (wheat [2]) was 5 (Herbicidal ratio of 90% or more (almost completely withered)) and the “L: Apera spica-venti” value (Apera spica-venti) was 5 (Herbicidal ratio of 90% or more (almost completely withered)). For the same compound, the “b: directly sowed rice plant, effect on crop grade” value (rice) was 5 (Herbicidal ratio of 90% or more (almost completely withered)), the “d: soybean, effect on crop grade” value (soybean) was 0 (Herbicidal ratio of 5% or lower (almost no effect)) and the “e: wheat, effect on crop grade” value (wheat [3]) was 5 (Herbicidal ratio of 90% or more (almost completely withered)). The “K: Lolium multiflorum Lam., herbicidal effect grade” value (Lolium multiflorum Lam.) was 5 (Herbicidal ratio of 90% or more (almost completely withered)), the “effect on crop b” value [4] was 5 (Herbicidal ratio of 90% or more (almost completely withered)) and the “N: Amaranthus retroflexus” value (Amaranthus retroflexus) was 5 (Herbicidal ratio of 90% or more (almost completely withered)). The “g: rapeseed, effect on crop (criteria of Test Example 1)” value (rapeseed [5]) was 5 (Herbicidal ratio of 90% or more (almost completely withered)), the “Herbicidal effect grade, A: Echinochloa oryzacola Vasing.” value [6] was 5 (Herbicidal ratio of 90% or more (almost completely withered)) and the “b: directly sowed rice plant, effect on crop (criteria of Test Example 1)” value (rice plant) was 5 (Herbicidal ratio of 90% or more (almost completely withered)).
